“Also recorded” adds a separate entry of the source.
Key:
[1] = test system: Bovine aortic endothelial cells (BAEC); experiment: DCC expression in NO donor-treated BAECs; type: cell-based; settings: NO donor 1 mmol/L, 2 hr
isolated cardiomyocytes = experiment: DCC expression in NO donor-treated isolated cardiomyocytes; type: cell-based, mouse; settings: NO donor 1 mmol/L, 2 hr
Description: NaCl 130, KCl 5.4, MgSO4 1, NaH2PO4 0.6, D-Glucose 10, HEPES 10, which was continuously bubbled with 95% O2+5% CO2. The enzymatic digestion was commenced by adding collagenase type II (Worthington Biochemical Corp., Lakewood, N.J., 0.56 mg/ml each) to the perfusion buffer and continued for 20 min. The heart was cut down and placed in the Petri dish with perfusion solution. The digested ventricular tissues were cut into 2-3 mm pieces and gently aspirated with a transfer pipette to facilitate cell dissociation. The myocytes were allowed to sediment by gravity for 8-10 min in the 15-ml Falcon tubes.

[2] = test system: infarct size post I/R insult; settings: nitrite supplementation; cited from earlier work
[3] = test system: mouse heart ischemia/reperfusion injury; experiment: Langendorff I/R, netrin-1 given post-conditionally at onset of reperfusion, TTC infarct size; settings: for Infarct size, inhibitor alone: given at reperfusion without netrin-1; for Effect of netrin-1 postconditioning on infarct size, inhibitor co-treatment: inhibitor with netrin-1
From the text: FIG. 17 diagrammatically provides the experimental protocols of the isolated C57BL/6J WT, DCC +/+ and +/−mice heart experiments with netrin-1 added post-conditionally. Data included in up to FIG. 16 indicated preventative role of netrin-1 in cardiac I/R injury when netrin-1 was given pre-conditionally ([…]). These new set of experiments are however critical in understanding if netrin-1 exerts cardioprotective effects when delivered as a post-conditioning agent at the onset of reperfusion (i.e. together with PTCA procedure). All hearts were stabilized for 40 min prior to experiments. Control hearts received 20 min of global no-flow ischemia followed by 60 min of reperfusion. Netrin-1 was given at the onset of the reperfusion. The signaling pathway inhibitors were given either alone accordingly or with the netrin-1 treatment. The arrows indicate the time for myocardial infarct sizing with 2,3,5-TTC (TTC) and for protein analysis by Western blot (WB). ▪=global no-flow ischemia.
Langendorff perfused hearts isolated from C57BL/6J wild-type (WT) control mice or DCC +/−mice underwent 20-min of global ischemia followed by 60-min of reperfusion. DCC (deleted in colorectal cancer) is one of the netrin-1 receptors we found to be however specifically involved in netrin-1 preconditioning induced cardioprotection. Netrin-1 was infused postconditionally at the onset of reperfusion at 100 ng/mL concentration with and without U0126, a specific MEK1/2 inhibitor, or 2-Phenyl-4,4,5,5-tetramethylimidazoline-1-oxyl-3-oxide (PTIO), a nitric oxide (NO)-scavenger. Infarct size was determined to evaluate the severity of myocardial injury using TTC staining, and protein kinase activations determined by Western blot analysis.

cardiac NO production = experiment: ESR detection of nitric oxide in Langendorff perfused heart homogenates; design: species or system mouse; settings: agent prior to netrin-1, I/R; vs. untreated I/R controls
Description: Langendorff perfusion: The mice were anesthetized with intraperitoneal pentobarbitone (60 mg/kg). Hearts were harvested and rapidly transferred into ice-cold Krebs-Henseleit buffer (KHB). […] NaCl118.0, KCl 4.7, CaCl2 2.5, MgSO4 1.2, KH2PO4 1.2, NaHCO3 25.0, D-Glucose 10 at constant pressure (80±1 mmHg) using a peristaltic pump and feedback system. For no I/R setting, hearts were perfused with KHB or netrin-1 for 120 min. […] These experimental protocols are illustrated in FIG. 7. Electron spin resonance detection of nitric oxide radical: Bioavailable nitric oxide radical (NO) from cells or tissues was detected using electron spin resonance (ESR) as described. See Nguyen et al. (2006) PNAS USA 103:6530-5; and Youn et al. (2009) Circ. Res 104:50-59, which are herein incorporated by reference. […] Gently collected homogenates or cell suspensions were snap-frozen in liquid nitrogen and loaded into a finger Dewar for analysis with an eScan electron spin resonance (ESR) spectrophotometer (Bruker, Freemont, Calif.) at the following settings: center field, 3410; field sweep, 100 G; microwave frequency, 9.73 GHz; microwave power, 13.26 mW; modulation amplitude, 9.82 G; 512 points resolution and receiver gain, 356.

[4] = test system: mouse heart ischemia/reperfusion injury; experiment: Langendorff perfused mouse heart, global ischemia/reperfusion, infarct size by TTC (netrin-1 pre-perfusion); settings: agent 30 min prior to netrin-1 (100 ng/ml, 45 min), then I/R
Description: Langendorff perfusion: The mice were anesthetized with intraperitoneal pentobarbitone (60 mg/kg). Hearts were harvested and rapidly transferred into ice-cold Krebs-Henseleit buffer (KHB). […] NaCl118.0, KCl 4.7, CaCl2 2.5, MgSO4 1.2, KH2PO4 1.2, NaHCO3 25.0, D-Glucose 10 at constant pressure (80±1 mmHg) using a peristaltic pump and feedback system. For no I/R setting, hearts were perfused with KHB or netrin-1 for 120 min. […] These experimental protocols are illustrated in FIG. 7. Infarct size analysis: […] The heart slices were then digitally photographed for planimetry using NIH Image 1.62. Infarct size is expressed as an infarct-to-risk zone ratio (the risk zone is the whole ventricular volume in this global ischemic model).

[5] = test system: I/R-induced cardiac apoptosis; experiment: TUNEL apoptosis detection in post-I/R heart sections; design: species or system mouse; settings: agent + netrin-1, I/R
Description: Detection of apoptosis: Apoptosis was detected by the apoptosis detection kit (Chemicon International, Inc., Billerica, Mass.) according to the manufacturer's protocol. At the end of the experimental protocols frozen heart sections (12 μm) were fixed with 1% formalin for 10 min at room temperature (RT) and washed twice in PBS, permeabilized with ethanol/acetic acid (2:1) for 5 min at −20° C., washed twice in PBS, and then incubated for >10 sec with the equilibration buffer. Subsequently, the sections were incubated for 1 hr with DIG-conjugated dUTP and TdT enzymes at 37° C., and then for 10 min in the stop buffer at room temperature (RT), and finally washed three times in PBS. The sections were then incubated with FITC-conjugated anti-DIG antibody for 30 min at RT, and washed three times in PBS. Cover-slipped sections were mounted with medium containing 0.5 μg/ml of propidium iodide. […] TUNEL assay was performed to determine whether netrin-1 inhibits apoptotic cell death induced by I/R. Left ventricular sections were incubated with FITC-conjugated anti-DIG antibody and coverslipped with the mounting medium containing 0.5 μg/ml of Propidium Iodide (PI).

DCC/ERK1/2/eNOS pathway = experiment: Western blot / RT-PCR of DCC, ERK1/2, eNOS signalling in perfused hearts; design: species or system mouse; settings: agent + netrin-1, I/R
Description: RT-PCR and Western blot: Total RNA was extracted from mouse hearts using TRIzol (Invitrogen, Carlsbad, Calif.) according to the manufacturer's instructions. Reverse transcription was performed in standard fashion with iScript cDNA Synthesis Kit (Bio-Rad, Hercules, Calif.). PCR was performed using the following primer pairs: PCRs were carried out on an iCycler (Bio-Rad, Hercules, Calif.) including primers generated for GAPDH, ((95° C./2 min), (95° C./25 sec, 57° C./5 sec, 68° C. 5 min)×35, (72° C./10 min)). Western blot analysis was performed as previously published. See Youn et al. (2009) Circ. Res 104:50-59, which is herein incorporated by reference. For no I/R setting, hearts were perfused with KHB or netrin-1 for 120 min. […] These experimental protocols are illustrated in FIG. 7.

[6] = test system: mouse heart ischemia/reperfusion injury; experiment: Langendorff I/R, TTC infarct size, NOX4 siRNA or sepiapterin; settings: TTC staining
NOS = experiment: L-NAME sensitive superoxide production (NOS coupling state); design: species or system mouse; settings: superoxide with and without L-NAME, I/R hearts
Description: Superoxide measurements with electron spin resonance (ESR): Superoxide production was measured from heart homogenates using ESR as previously described. Briefly, heart homogenate (10 μg) was mixed in a spin trap solution (CMH, 0.5 mmol/L), loaded into a glass capillary (Fisher Scientific) in the presence or absence of L-NAME (100 μmol/L), and assayed for superoxide using a Bio-Spin ESR spectorphotometer (Bruker) at the following settings: center field 3476; […]; frequency 9.75 GHz; microwave power 21.02 mW; modulation amplitude 2.47 G; 512 points resolution; receiver gain 1000. Netrin-1 attenuates I/R induced NOS uncoupling: To assess the coupling state of NOS under I/R and netrin-1-infused I/R conditions, superoxide production was measured with and without the addition of L-NAME, a general inhibitor of NOS. Under normal conditions when NOS is coupled, it produces nitric oxide (NO). Therefore, the addition of L-NAME will reduce the level of NO, resulting in an increase in measured superoxide production. On the other hand, if NOS is uncoupled and is producing superoxide, the addition of L-NAME will reduce measured superoxide. […] Using this method, the coupling state of whole heart homogenate from each condition was measured (n=5 each condition), with the results shown in FIG. 13.

heart mitochondria = experiment: Mitochondrial swelling assay on mitochondria from perfused hearts; design: species or system mouse; settings: isolated mitochondria, absorbance 540 nm
Description: Mitochondria isolation: Heart tissue was rinsed twice in ice cold PBS immediately after the end of the Langendorff experiment. The tissue was then homogenized in a pre-chilled glass homogenizer using isolation buffer I (sucrose 250 mM, EGTA 1 mM, HEPES10 mM, and Tris-HCl 10 mM, pH 7.4, 1 ml buffer/0.1 g tissue) on ice. The homogenate was then centrifuged at 800 g for 7 min at 4 C. The supernatant was then transferred to a new tube and centrifuged at 4000 g for 15 min at 4° C. The pellet was rinsed using 1 ml of isolation buffer II (sucrose 250 mM, HEPES 10 mM, Tris-HCl 10 mM, pH 7.4), then centrifuged again at 4000 g for 15 min at 4° C. Further purification was performed by resuspending the pellet with 3 ml of a 19% percoll solution, then layering this on top of a double layer of 30% and 60% percoll solution in a centrifugation tube. The entire tube was spun for 60 min at 1,000 g. The mitochondria layer in the tube was carefully removed. Percoll was washed from the sample by alternating centrifugation and resuspension with isolation buffer II. The final pellet was resuspended in isolation buffer II.
Mitochondrial swelling assay: 30 μg of freshly isolated mitochondria were mixed in a buffer containing 250 mM sucrose and 10 mM Tris (pH 7.4). The mixture was then incubated with 5 mM succinate for 1 minute at room temperature, then with 250 μM of CaCl2. Absorbance at 540 nm was measured immediately for 20 min at 1 minute intervals. Swelling was measured as a decrease in absorbance over time.

NOX4 = experiment: Western blot of NOX isoforms from whole heart homogenate; design: species or system mouse; settings: NOX4 siRNA in vivo
From the text: Preparation of heart tissue for biochemical assays: At the end of the Langendorff experiment, hearts were removed from the perfusion apparatus and immediately transferred onto ice awaiting homogenization. For superoxide measurement and Western blot analysis, hearts were homogenized with ice cold homogenization buffer (Tris 50 mmol/L, EDTA 0.1 mmol/L, EGTA 0.1 mmol/L, protease inhibitor cocktail, pH 7.4) on ice using a glass homogenizer. For Western blot analysis, the supernatant from the homogenate centrifuged at 13,000 rpm for 15 min at 4° C. was used.
Western blot: Western blotting was performed as per standard protocols. Primary antibody for NOX4 (Abcam, Cambridge, Mass.) was used at a dilution of 1:1000. Primary antibody for actin (Sigma-Aldrich, St. Louis, Mo.) was used at a dilution of 1:3000. Secondary antibody conjugated to HRP (Bio-Rad, Hercules, Calif.) was used at a dilution of 1:2000 for NOX4, and 1:10000 for actin.

[7] = test system: cardiac superoxide production; experiment: Superoxide measurement with ESR in heart homogenates after Langendorff I/R; design: species or system mouse; settings: siRNA by tail vein, 2 injections
Description: Langendorff perfusion: Animals were initially anesthetized with isoflurane. Hearts from the animals were rapidly removed and transferred to ice cold modified Krebs-Henseleit buffer (KHB), consisting of (in mmol/L): NaCl118.0, KCl 4.7, CaCl2 2.5, MgSO4 1.2, Kh2PO4 1.2, NaHCO3 25.0, Glucose 10, pH 7.35. […] While under perfusion, the heart is kept in a 37° C. chamber. For no I/R, hearts were perfused with KHB for 120 min. […] These treatment protocols are illustrated in FIG. 11A. […] At the end of the Langendorff experiment, hearts were removed from the perfusion apparatus and immediately transferred onto ice awaiting homogenization. […] For Western blot analysis, the supernatant from the homogenate centrifuged at 13,000 rpm for 15 min at 4° C. was used. Superoxide measurements with electron spin resonance (ESR): Superoxide production was measured from heart homogenates using ESR as previously described. Briefly, heart homogenate (10 μg) was mixed in a spin trap solution (CMH, 0.5 mmol/L), loaded into a glass capillary (Fisher Scientific) in the presence or absence of L-NAME (100 μmol/L), and assayed for superoxide using a Bio-Spin ESR spectorphotometer (Bruker) at the following settings: center field 3476; […]; frequency 9.75 GHz; microwave power 21.02 mW; modulation amplitude 2.47 G; 512 points resolution; receiver gain 1000.

Compound | Infarct size, inhibitor alone [3] | Effect of netrin-1 postconditioning on infarct size, inhibitor co-treatment [3] | Netrin-1 stimulated NO production in hearts pre-perfused with the agent (cardiac NO production) | Infarct size after I/R [6] | NOS coupling state under I/R (NOS) | Mitochondrial function (swelling) in I/R hearts (heart mitochondria) | other results
CNCCCCCCN(C)/[N+]([O-])=N/O [MAMANOATE] |  |  |  |  |  |  | DCC protein expression in cultured ECs [1]: increased DCC protein expression; DCC protein expression in cardiomyocytes (isolated cardiomyocytes): increased DCC protein expression
O=NO [Nitrite] |  |  |  |  |  |  | reduction in infarct size post I/R insult [2]: 48%
CC1(C)N([O])C(c2ccccc2)=[N+]([O-])C1(C)C [PTIO, 2-phenyl-4,4,5,5-tetramethylimidazoline-1-oxyl 3-oxide] | no effect | abolished | attenuated |  |  |  | 
N#CC(=C(N)Sc1ccccc1N)C(C#N)=C(N)Sc1ccccc1N [U0126, 1,4-diamino-2,3-dicyano-1,4-bis (2-aminophenylthio)butadiene] | no effect | abolished | 1.12±0.15 fold |  |  |  | Infarct size / cardioprotection in netrin-1-perfused hearts pre-perfused with the agent [4]: 41.3±4.1%; TUNEL positive cells, agent prior to netrin-1 [5]: 19.24±2.4%; Netrin-1 increase in phosphorylated ERK1/2 and eNOSs1177, agent prior to netrin-1 (DCC/ERK1/2/eNOS pathway): inhibited; Netrin-1 restoration of DCC protein expression, agent prior to netrin-1 (DCC/ERK1/2/eNOS pathway): abolished; AKT phosphorylation after the entire I/R procedure (DCC/ERK1/2/eNOS pathway; data not shown): unaffected
C[C@H](O)C(=O)C1=Nc2c(nc(N)[nH]c2=O)NC1 [sepiapterin] |  |  |  | effective in reducing infarct size | effective in recoupling NOS; also recorded: recouples NOS | improving mitochondria function; also recorded: improving mitochondrial function | Mitochondrial function (swelling) in I/R hearts (heart mitochondria; listed as Sepiapterin): restored mitochondria function; also recorded: effectively diminished mitochondrial dysfunction
NOX4 siRNA: in vivo grade siRNA against NOX4 (SEQ ID NO:19, 20) delivered with nanoparticle transfection kit (chain 1 CAUGCUGCUGCUGUUGCAUGUUUCA; chain 2 CCCUCUGAUGUAAUGGAACUCCGUA; nanoparticle delivery, further chemistry not given here) |  |  |  | markedly reduced | functional NOS; also recorded: restored | marked improvement; also recorded: improved | NOX4 protein expression in hearts of siRNA treated mice (NOX4): successful silencing; superoxide levels in NOX4 siRNA treated hearts compared to controls [7]: increased
